Results taken from BindingDB's records for doi:10.1021/acs.jmedchem.8b01200 (Fuji Research Park, R&D Division, 2018).

Assay: Agonist activity at PPARgamma in human MKN45 cells assessed as cell differentiation after 5 days by Hoechst 33342 staining-based assay

CCCCCS(=O)(=O)NC(=O)c1ccc2nc(C)n(Cc3ccc(Cl)cc3Cl)c2c1 [ATx08-001]
EC50: > 500 nM
